Assay results from patent US4670431A, “Beta-lactam antibacterial agents” (Beecham Group p.l.c., priority 1983, dated 1987).

Each compound was assayed on P. mirabilis 889 (assay: MIC against P. mirabilis 889). Conditions: Proteus mirabilis, 889.
Type: cell-based, Proteus mirabilis
Text: The antibiotic compounds of the present invention are active against a wide range of gram negative and gram positive organisms including E. coli such as, for example ESS, JT4, JT425 and NCTC 10418; Pseudomonas Spp. such Ps.aeruginosa for example 10662 and Dalgleish; Serratia marcescens US32; Klebsiella aerogenes A; Enterobacter cloacae N1; P.mirabilis such as, for example C977 and 889; P.morganii, P.rettgeri; B.subtilis; Staph aureus such as, for example Oxford and Russell; N.catarrhalis 1502; Strep faecalis I; β-Haemolytic Strep CN10. The MIC data included in the following examples is representative of the activity of the compounds of the present invention.

First: CCN1CCN(C(=O)N[C@@H](C(=O)N[C@]2(NC=O)C(=O)N3C(C(=O)O)=C(CSc4nnnn4C)C[S@@+]([O-])[C@@H]32)c2ccccc2)C(=O)C1=O [Example 8(d), Sodium 7β-[D-2-[(4-Ethyl-2,3-dioxopiperazin-1-yl)carbonylamino]-2-phenylacetamido]-7α-formamido-3-[(1-methyl-1H-tetrazol-5-yl)thiomethyl]ceph-3-em-4-carboxylate-1α-oxide]
Second: CCN1CCN(C(=O)N[C@@H](C(=O)N[C@]2(NC=O)C(=O)N3C(C(=O)O)=C(CSc4nnnn4C)C[S@+]([O-])[C@@H]32)c2ccccc2)C(=O)C1=O [Example 8(e), Sodium 7β-[D-2-[(4-Ethyl-2,3-dioxopiperazin-1-yl)carbonylamino]-2-phenylacetamido]-7α-formamido-3-[(1-methyl-1H-tetrazol-5-yl)thiomethyl]ceph-3-em-4-carboxylate-1β-oxide]
The MIC of the first is 2-fold lower: 0.25 µg/mL for the first, 0.5 µg/mL for the second.

Going from `CCN1CCN(C(=O)N[C@@H](C(=O)N[C@]2(NC=O)C(=O)N3C(C(=O)O)=C(CSc4nnnn4C)C[S@+]([O-])[C@@H]32)c2ccc(O)c(O)c2)C(=O)C1=O` [Example 16(d), Sodium 7β-[D-2-(3,4-dihydroxyphenyl)-2-[(4-ethyl-2,3-dioxopiperazin-1-yl)carbonylamino]acetamido]-7α-formamido-3-[(1-methyl-1H-tetrazol-5-yl)thiomethyl]-ceph-3-em-4-carboxylate-1β-oxide] to `CCN1CCN(C(=O)N[C@@H](C(=O)N[C@]2(NC=O)C(=O)N3C(C(=O)O)=C(CSc4nnnn4C)C[S@@+]([O-])[C@@H]32)c2ccc(O)c(O)c2)C(=O)C1=O` [Example 16(e), Sodium 7β-[D-2-(3,4-dihydroxyphenyl)-2-[(4-ethyl-2,3-dioxopiperazin-1-yl)carbonylamino]acetamido]-7α-formamido-3-[(1-methyl-1H-tetrazol-5-yl)thiomethyl]-ceph-3-em-4-carboxylate-1α-oxide], the MIC falls from 1 µg/mL to 0.25 µg/mL (4-fold).

Compared with `CC(=O)OCC1=C(C(=O)O)N2C(=O)[C@@](NC=O)(NC(=O)Cc3cccs3)[C@H]2[S@@+]([O-])C1` [Example 27(b), Sodium 7α-Formamido-7β-thien-2-ylacetamidocephalosporanate-1β-oxide], `CC(=O)OCC1=C(C(=O)O)N2C(=O)[C@@](NC=O)(NC(=O)Cc3cccs3)[C@H]2[S@+]([O-])C1` [Example 27(c), Sodium 7α-Formamido-7β-thien-2-ylacetamidocephalosporanate-1α-oxide] is 4-fold lower in MIC: 8 µg/mL for the first, 2 µg/mL for the second.

Same assay, conditions: Proteus mirabilis, 889, broth

In the case of `NC(=O)OCC1=C(C(=O)O)N2C(=O)[C@@](NC=O)(NC(=O)Cc3cccs3)[C@H]2SC1` [Example 26(b), Sodium 3-carbamoyloxymethyl-7α-formamido-7β-thien-2-yletamido-ceph-3-em-4-carboxylate], the MIC is reported as 16 µg/mL.
